Series [1] deals with T1, protein MabA (Mycobacterium tuberculosis, UniProt P9WGT3). Nature of the series: Inhibition of the β-ketoacyl reductase activity of MabA after preincubation with antibiotic, NADPH and MnCl2. Type of series: biochemical.
In series [2] the target is T2, InhA (Mycobacterium tuberculosis, UniProt P9WGR1). To be noted: 100 μM ETH, in the presence of MnCl2 and NADH.
The target of series [3] is T1, protein MabA. Nature of the series: MabA enzymatic kinetics test (NADPH oxidation at 340 nm).
The target of a further series is enoyl-reductase. As to conditions: Kikuchi et al., 1989, cited from earlier work.
For the next series, the target named is β-ketoacyl reductase. To be noted: Kikuchi et al., 1989, cited from earlier work.
The conditions of series [4]: aqueous solutions; Constantinides & Steim, 1985; cited from earlier work.
Series [5] has as its target T2, InhA. As to conditions: cited from earlier work.
Series [6] concerns CCCCCCC(=O)C(=O)SCCNC(=O)CCNC(=O)[C@H](O)C(C)(C)COP(=O)(O)OP(=O)(O)OC[C@H]1O[C@@H](n2cnc3c(N)ncnc32)[C@H](O)[C@@H]1OP(=O)(O)O. Nature of the series: purified protein, by the assay type.
In series [7] the test system is CC(=O)CC(=O)SCCNC(=O)CCNC(=O)[C@H](O)C(C)(C)COP(=O)(O)OP(=O)(O)OC[C@H]1O[C@@H](n2cnc3c(N)ncnc32)[C@H](O)[C@@H]1OP(=O)(O)O. In words: purified protein, by the assay type.
For series [8], the system named is CCCCCCCCCCC(=O)C(=O)SCCNC(=O)CCNC(=O)[C@H](O)C(C)(C)COP(=O)(O)OP(=O)(O)OC[C@H]1O[C@@H](n2cnc3c(N)ncnc32)[C@H](O)[C@@H]1OP(=O)(O)O. Nature of the series: purified protein, by the assay type.
The mark [9] stands for this setting: other: section 4.1, 25° C., 80 mM sodium phosphate, NADPH Km at 460 μM acetoacetyl-CoA, β-ketoacyl-CoA Km at 100 μM NADPH.

T2 sequence (P9WGR1 whole entry, looked up): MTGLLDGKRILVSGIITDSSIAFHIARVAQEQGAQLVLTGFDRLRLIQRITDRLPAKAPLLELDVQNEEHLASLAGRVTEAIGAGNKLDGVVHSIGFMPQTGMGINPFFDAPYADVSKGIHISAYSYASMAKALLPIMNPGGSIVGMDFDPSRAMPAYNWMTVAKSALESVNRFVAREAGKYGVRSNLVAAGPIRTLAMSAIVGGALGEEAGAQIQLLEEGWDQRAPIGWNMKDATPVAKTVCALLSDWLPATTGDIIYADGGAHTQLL
T1 sequence (P9WGT3 whole entry, looked up): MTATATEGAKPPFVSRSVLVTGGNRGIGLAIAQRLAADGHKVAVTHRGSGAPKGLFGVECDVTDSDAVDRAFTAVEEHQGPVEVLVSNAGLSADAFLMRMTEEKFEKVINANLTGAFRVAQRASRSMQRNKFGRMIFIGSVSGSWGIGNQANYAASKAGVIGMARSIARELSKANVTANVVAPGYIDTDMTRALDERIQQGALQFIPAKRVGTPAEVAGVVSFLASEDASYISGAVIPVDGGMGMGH

For the compound `CCc1cc(C(N)=S)ccn1` [ETH, ethionamide], the “effect on the activity of MabA” value at protein MabA [1] (100 μM ETH, conditions of inhibition by INH, same result as InhA (activity unchanged)) was “same result”. Besides, at InhA [2], the “effect on the activity of InhA” value is listed as “unchanged”.
In general, Km refers to the substrate concentration at which the rate is half of its maximum. Consider NADPH, for which, on protein MabA [3] (read-out: Km of MabA, section 4.1, 25° C., 80 mM sodium phosphate, NADPH Km at 460 μM acetoacetyl-CoA, β-ketoacyl-CoA Km at 100 μM NADPH), the Michaelis constant (Km) is 39 µM.
By inhibition is commonly meant the change of the read-out against control, counted positive when it falls. A higher inhibition goes with a response far below the control. The Ki is the equilibrium dissociation constant of an inhibitor or competing ligand from its target. For the compound `NNC(=O)c1ccncc1` [isoniazid, isonicotinic acid hydrazide], on protein MabA [1] (100 μM INH, MabA 150 nM preincubated 2 hours with 100 μM NADPH and 1 μM MnCl2, acetoacetyl-CoA substrate), the “inhibition of the activity of MabA compared with the control without INH” value was 44±3%. On protein MabA [1] (2 mM isoniazid, MabA 150 nM preincubated 2 hours with 100 μM NADPH and 1 μM MnCl2, acetoacetyl-CoA substrate), this compound returned an inhibition at 2000 µM of 62 ± 6%. Also, the “effect of INH on the activity of MabA in the absence of MnCl2” value at protein MabA [1] (absence of MnCl2 in the reaction) is “non-significant reduction”. Further, the results for the inhibition constant (Ki) on enoyl-reductase and at β-ketoacyl reductase were 5.5 mM and 0.353 mM, respectively. Moreover, in the series on enoyl-reductase (isoniazid 2 mM), the inhibition of enoyl-reductase was 26%. Moreover, the “inhibition of β-ketoacyl reductase” value in the series with β-ketoacyl reductase (isoniazid 2 mM) is 93%.
Turning to `CCCCCCCCCCCCCCCC(=O)SCCNC(=O)CCNC(=O)[C@H](O)C(C)(C)COP(=O)(O)OP(=O)(O)OC[C@H]1O[C@@H](n2cnc3c(N)ncnc32)[C@H](O)[C@@H]1OP(=O)(O)O` [palmitoyl-CoA], in [4], the “CMC (critical micellar concentration)” value is 70 µM.
Regarding `CCCCCCCCCCCCCCCCCC(=O)SCCNC(=O)CCNC(=O)[C@H](O)C(C)(C)COP(=O)(O)OP(=O)(O)OC[C@H]1O[C@@H](n2cnc3c(N)ncnc32)[C@H](O)[C@@H]1OP(=O)(O)O` [stearoyl-CoA], the “CMC (critical micellar concentration)” value in series [4] was 12 µM.
As for `NC(=O)C1=CN([C@@H]2O[C@H](COP(=O)(O)OP(=O)(O)OC[C@H]3O[C@@H](n4cnc5c(N)ncnc54)[C@H](O)[C@@H]3O)[C@@H](O)[C@H]2O)C=CC1` [NADH], at InhA [5] (comparison value for InhA, read-out: Km of the protein InhA for its cofactor), the Michaelis constant (Km) was 8 µM. Besides, on protein MabA [3] (NADH at the same concentration as NADPH in the kinetics test), the “MabA activity on substitution of NADPH by NADH” value is given as “total loss of the activity”.
A word on the kcat: it is the maximal rate divided by the concentration of active sites. Regarding “protein MabA (Mycobacterium tuberculosis H37Rv)”, the Km in series [6] (25.0 °C) came out at 70 ± 8 µM; in series [6] (setting [9]), 60 µM; in [7] (25.0 °C), 1530 ± 81 µM; in [7] (setting [9]), 1582 µM; in [8] (25.0 °C) it was 8.3 ± 0.8 µM; in series [8] (setting [9]), 9 µM. Moreover, the turnover number (kcat) came to 3.5 ± 0.0 s⁻¹ in series [6] (25.0 °C), 1.9 ± 0.0 s⁻¹ in [7] (25.0 °C) and 4.3 ± 0.2 s⁻¹ in [8] (25.0 °C).
As for `C/C=C/C(=O)SCCNC(=O)CCNC(=O)[C@H](O)C(C)(C)COP(=O)(O)OP(=O)(O)OC[C@H]1O[C@@H](n2cnc3c(N)ncnc32)[C@H](O)[C@@H]1OP(=O)(O)O` [crotonoyl-CoA], on InhA [5] (even at 8 mM, Quémard et al., 1995), the “activity of InhA in the presence of the 4-carbon substrate” value is “no activity”.
